From ChEMBL document CHEMBL4321795, “Metabolism by Aldehyde Oxidase: Drug Design and Complementary Approaches to Challenges in Drug Discovery” (J Med Chem, 2019)

Tests used:
[1] = Drug level in human plasma treated with imrecoxib at 100 mg, po measured up to 96 hrs by UPLC/Q-TOF MS analysis; assay type: ADME, organism-based; conditions: in vivo
[2] = Oral bioavailability in BDF1 mouse at 25 mg/kg after 2 to 24 hrs by HPLC analysis; assay type: ADME, organism-based; conditions: in vivo
[3] = Oral bioavailability in BDF1 mouse at 50 mg/kg after 2 to 24 hrs by HPLC analysis; assay type: ADME, organism-based; conditions: in vivo
Aldehyde oxidase 1 [4] = target: T1, Aldehyde oxidase 1 (Rattus norvegicus, UniProt Q9Z0U5); experiment: Drug level in Sprague-Dawley rat plasma treated with [14C]momelotinib assessed as aldehyde oxidase mediated compound formation at 15 mg/kg, po measured up to 48 hrs by liquid scintillation counting; assay type: ADME, organism-based; conditions: in vivo
T1 sequence (Q9Z0U5 whole entry): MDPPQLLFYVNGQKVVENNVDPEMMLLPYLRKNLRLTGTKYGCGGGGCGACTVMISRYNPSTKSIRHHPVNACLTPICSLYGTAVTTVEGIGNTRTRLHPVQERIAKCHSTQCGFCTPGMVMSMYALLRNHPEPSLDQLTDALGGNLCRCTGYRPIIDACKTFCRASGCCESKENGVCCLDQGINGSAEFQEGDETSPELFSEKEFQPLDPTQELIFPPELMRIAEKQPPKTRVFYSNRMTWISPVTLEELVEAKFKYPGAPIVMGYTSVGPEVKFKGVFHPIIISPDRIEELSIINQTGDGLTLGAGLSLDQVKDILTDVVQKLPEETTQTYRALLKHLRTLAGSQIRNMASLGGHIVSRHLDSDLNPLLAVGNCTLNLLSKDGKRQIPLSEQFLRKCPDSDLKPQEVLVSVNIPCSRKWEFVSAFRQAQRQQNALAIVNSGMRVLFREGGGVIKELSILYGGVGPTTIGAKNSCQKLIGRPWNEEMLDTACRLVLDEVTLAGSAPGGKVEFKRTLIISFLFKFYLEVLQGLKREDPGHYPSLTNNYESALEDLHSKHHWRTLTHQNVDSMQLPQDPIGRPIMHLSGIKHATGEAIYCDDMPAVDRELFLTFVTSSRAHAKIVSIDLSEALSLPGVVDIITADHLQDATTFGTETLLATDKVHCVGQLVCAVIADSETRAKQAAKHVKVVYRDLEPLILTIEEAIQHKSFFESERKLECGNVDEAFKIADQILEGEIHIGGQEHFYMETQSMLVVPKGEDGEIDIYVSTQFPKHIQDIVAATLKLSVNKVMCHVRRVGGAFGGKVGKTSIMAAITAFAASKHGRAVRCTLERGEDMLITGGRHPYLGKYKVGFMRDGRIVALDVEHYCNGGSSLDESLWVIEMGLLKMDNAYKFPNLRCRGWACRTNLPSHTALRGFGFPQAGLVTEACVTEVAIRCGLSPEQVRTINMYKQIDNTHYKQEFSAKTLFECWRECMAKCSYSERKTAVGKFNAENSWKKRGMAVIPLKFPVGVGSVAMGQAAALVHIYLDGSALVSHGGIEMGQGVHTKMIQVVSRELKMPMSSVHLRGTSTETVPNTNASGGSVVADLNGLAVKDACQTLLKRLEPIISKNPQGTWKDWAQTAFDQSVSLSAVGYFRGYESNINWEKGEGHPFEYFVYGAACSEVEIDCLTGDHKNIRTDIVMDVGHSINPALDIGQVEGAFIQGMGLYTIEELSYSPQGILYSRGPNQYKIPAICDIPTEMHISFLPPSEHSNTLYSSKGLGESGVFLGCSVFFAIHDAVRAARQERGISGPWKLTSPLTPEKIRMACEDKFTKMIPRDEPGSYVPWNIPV

[5] = Drug level in Beagle dog plasma treated with [14C]momelotinib at 15 mg/kg, po measured up to 12 hrs by liquid scintillation counting; assay type: ADME, organism-based, Canis lupus familiaris; conditions: in vivo
Aldehyde oxidase [6] = target: T2, Aldehyde oxidase (Homo sapiens, UniProt Q06278); experiment: Drug level in human plasma treated with [14C]momelotinib assessed as aldehyde oxidase mediated compound formation at 200 mg, po measured at 24 hrs interval for 504 hrs post dose by liquid scintillation counting; assay type: ADME, organism-based; conditions: in vivo
T2 sequence (Q06278 whole entry): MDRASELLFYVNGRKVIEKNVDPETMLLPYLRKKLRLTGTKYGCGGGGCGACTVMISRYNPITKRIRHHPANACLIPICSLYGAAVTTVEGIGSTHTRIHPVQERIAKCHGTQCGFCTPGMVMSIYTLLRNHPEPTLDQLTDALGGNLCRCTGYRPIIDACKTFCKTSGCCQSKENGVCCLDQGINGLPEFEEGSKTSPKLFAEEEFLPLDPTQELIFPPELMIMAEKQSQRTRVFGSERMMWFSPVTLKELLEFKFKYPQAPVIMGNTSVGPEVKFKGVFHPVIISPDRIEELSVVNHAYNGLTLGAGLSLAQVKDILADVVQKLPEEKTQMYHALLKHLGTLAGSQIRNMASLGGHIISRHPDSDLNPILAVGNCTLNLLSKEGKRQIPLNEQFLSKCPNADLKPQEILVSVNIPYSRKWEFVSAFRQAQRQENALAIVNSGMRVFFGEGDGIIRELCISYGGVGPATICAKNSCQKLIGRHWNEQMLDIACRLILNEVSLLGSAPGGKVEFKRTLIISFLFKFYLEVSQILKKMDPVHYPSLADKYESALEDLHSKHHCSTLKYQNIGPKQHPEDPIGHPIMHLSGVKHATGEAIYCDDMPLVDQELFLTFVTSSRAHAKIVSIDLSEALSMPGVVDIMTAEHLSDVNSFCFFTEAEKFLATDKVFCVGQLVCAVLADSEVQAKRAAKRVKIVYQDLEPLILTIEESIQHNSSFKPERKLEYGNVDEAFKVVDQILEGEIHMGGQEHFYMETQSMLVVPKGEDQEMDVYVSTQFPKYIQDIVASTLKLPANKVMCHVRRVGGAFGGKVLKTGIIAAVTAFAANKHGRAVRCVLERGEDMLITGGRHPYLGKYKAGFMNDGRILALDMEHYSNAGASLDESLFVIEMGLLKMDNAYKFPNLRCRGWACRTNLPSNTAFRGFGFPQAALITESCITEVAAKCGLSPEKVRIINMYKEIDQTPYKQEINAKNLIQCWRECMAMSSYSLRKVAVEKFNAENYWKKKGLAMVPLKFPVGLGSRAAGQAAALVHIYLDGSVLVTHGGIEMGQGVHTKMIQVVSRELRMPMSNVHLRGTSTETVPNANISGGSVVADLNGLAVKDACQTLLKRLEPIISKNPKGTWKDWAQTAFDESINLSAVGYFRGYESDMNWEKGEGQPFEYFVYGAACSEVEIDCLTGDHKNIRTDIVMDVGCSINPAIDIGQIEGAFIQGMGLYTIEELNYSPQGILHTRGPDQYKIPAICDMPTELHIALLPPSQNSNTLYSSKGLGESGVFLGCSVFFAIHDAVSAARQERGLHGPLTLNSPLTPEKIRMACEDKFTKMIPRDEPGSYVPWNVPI

Cytochrome P450 3A4 [7] = target: T3, Cytochrome P450 3A4 (Homo sapiens, UniProt P08684); experiment: Substrate activity at human CYP3A4 assessed as increase in methyl-prednisolone AUC relative to control; assay type: ADME
T3 sequence (P08684 whole entry): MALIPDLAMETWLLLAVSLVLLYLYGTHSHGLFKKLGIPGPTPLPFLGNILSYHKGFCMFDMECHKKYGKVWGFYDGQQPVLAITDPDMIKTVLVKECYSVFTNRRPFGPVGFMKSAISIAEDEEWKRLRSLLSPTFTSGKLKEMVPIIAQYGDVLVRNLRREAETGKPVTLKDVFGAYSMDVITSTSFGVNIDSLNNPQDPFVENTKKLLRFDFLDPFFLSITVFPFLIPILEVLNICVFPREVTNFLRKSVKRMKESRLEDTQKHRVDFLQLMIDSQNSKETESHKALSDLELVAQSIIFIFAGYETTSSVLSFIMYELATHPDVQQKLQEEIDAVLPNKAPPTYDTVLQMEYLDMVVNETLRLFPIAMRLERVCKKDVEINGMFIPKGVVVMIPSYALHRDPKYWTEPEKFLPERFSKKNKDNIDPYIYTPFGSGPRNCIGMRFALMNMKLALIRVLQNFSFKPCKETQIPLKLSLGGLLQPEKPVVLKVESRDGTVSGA

Cytochrome P450 3A4 [8] = target: T3, Cytochrome P450 3A4; experiment: Substrate activity at human CYP3A4 assessed as increase in atorvastatin AUC relative to control; assay type: ADME
Cytochrome P450 3A4 [9] = target: T3, Cytochrome P450 3A4; experiment: Substrate activity at human CYP3A4 assessed as increase in midazolam AUC relative to control; assay type: ADME
Aldehyde oxidase 1 [10] = target: T1, Aldehyde oxidase 1; experiment: Substrate activity at aldehyde oxidase in rat liver cytosol assessed as enzyme-mediated drug uptake by mass spectrophotometric analysis; assay type: ADME, subcellular
Aldehyde oxidase 1 [11] = target: T4, Aldehyde oxidase 1 (Cavia porcellus, UniProt H9TB17); experiment: Substrate activity at aldehyde oxidase in guinea pig liver cytosol assessed as enzyme-mediated drug uptake by mass spectrophotometric analysis; assay type: ADME, subcellular
T4 sequence (H9TB17 whole entry): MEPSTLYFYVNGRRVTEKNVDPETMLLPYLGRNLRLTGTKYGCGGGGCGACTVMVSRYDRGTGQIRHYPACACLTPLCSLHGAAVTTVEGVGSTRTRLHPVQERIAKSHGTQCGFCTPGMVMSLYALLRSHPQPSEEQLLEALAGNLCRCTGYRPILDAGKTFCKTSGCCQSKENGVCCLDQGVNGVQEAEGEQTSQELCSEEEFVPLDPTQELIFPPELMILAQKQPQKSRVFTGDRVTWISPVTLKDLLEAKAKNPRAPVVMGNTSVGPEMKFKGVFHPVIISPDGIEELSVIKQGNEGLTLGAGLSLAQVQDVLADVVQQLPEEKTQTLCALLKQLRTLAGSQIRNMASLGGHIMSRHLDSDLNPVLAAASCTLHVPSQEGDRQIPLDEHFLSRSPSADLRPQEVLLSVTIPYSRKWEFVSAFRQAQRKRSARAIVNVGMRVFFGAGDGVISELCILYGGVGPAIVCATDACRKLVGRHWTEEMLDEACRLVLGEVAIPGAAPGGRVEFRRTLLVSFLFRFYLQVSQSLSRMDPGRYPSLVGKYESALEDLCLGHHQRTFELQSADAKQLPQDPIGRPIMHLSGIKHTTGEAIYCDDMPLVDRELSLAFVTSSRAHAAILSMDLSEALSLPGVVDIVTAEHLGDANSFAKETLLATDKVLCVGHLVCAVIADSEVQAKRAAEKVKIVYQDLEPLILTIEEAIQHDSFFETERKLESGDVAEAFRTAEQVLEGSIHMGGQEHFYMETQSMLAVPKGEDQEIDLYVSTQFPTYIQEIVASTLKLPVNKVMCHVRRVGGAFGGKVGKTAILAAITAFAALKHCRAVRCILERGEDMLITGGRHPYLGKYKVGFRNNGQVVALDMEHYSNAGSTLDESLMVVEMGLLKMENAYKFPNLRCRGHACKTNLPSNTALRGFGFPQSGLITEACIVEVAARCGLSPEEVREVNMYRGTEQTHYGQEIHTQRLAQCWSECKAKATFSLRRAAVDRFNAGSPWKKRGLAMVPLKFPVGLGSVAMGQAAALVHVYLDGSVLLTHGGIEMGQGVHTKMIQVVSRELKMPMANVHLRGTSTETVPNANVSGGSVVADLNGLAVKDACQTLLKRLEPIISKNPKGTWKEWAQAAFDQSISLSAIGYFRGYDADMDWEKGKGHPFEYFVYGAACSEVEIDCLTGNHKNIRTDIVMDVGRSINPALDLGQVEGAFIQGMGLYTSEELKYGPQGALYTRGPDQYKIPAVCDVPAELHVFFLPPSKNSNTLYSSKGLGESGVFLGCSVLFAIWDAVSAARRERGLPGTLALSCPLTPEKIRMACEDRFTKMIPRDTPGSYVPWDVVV

Aldehyde oxidase [12] = target: T2, Aldehyde oxidase; experiment: Substrate activity at aldehyde oxidase in human liver cytosol assessed as enzyme-mediated drug uptake by mass spectrophotometric analysis; assay type: ADME, subcellular
Aldehyde oxidase [13] = target: T2, Aldehyde oxidase; experiment: Substrate activity at aldehyde oxidase in human liver S9 fractions assessed as enzyme-mediated 2-oxo metabolite formation by measuring half life at 1 uM after 10 to 120 mins by liquid chromatography-tandem mass spectrometry; assay type: ADME, subcellular; conditions: s9, 1 µM
Aldehyde oxidase 1 [14] = target: T1, Aldehyde oxidase 1; experiment: Substrate activity at aldehyde oxidase in rat liver cytosol assessed as enzyme-mediated drug uptake at 1 uM; assay type: ADME, subcellular
Aldehyde oxidase 1 [15] = target: T4, Aldehyde oxidase 1; experiment: Substrate activity at aldehyde oxidase in guinea pig liver cytosol assessed as enzyme-mediated drug uptake at 1 uM; assay type: ADME, subcellular
Aldehyde oxidase [16] = target: T2, Aldehyde oxidase; experiment: Substrate activity at aldehyde oxidase in human liver cytosol assessed as enzyme-mediated drug uptake at 1 uM; assay type: ADME, subcellular
Aldehyde oxidase [17] = target: T2, Aldehyde oxidase; experiment: Substrate activity at aldehyde oxidase in human hepatocytes assessed as enzyme-mediated drug uptake at 1 uM; assay type: ADME, cell-based
[18] = Oral bioavailability in human; assay type: ADME, organism-based; conditions: in vivo
Aldehyde oxidase [19] = target: T2, Aldehyde oxidase; experiment: Substrate activity at aldehyde oxidase in human liver cytosol assessed as enzyme-mediated M2 metabolite formation at 10 uM after 90 mins by LC-MS/MS analysis; assay type: ADME, subcellular
[20] = Clearance in human plasma; assay type: ADME, cell-free

CCCN1CC(c2ccc(S(C)(=O)=O)cc2)=C(c2ccc(C(=O)O)cc2)C1=O
Drug uptake [1]: 68%

Oc1ncc(F)cn1
bioavailability [2]: 100%
bioavailability [3]: 78%

N#CCNC(=O)c1ccc(-c2ccnc(Nc3ccc(N4CCOCC4=O)cc3)n2)cc1
Drug uptake (Aldehyde oxidase 1 [4]): < 10%
Drug uptake [5]: < 10%
Drug uptake (Aldehyde oxidase [6]): 64.2%

CC[C@@](C)(Nc1ccnc(-c2c[nH]c3ncccc23)n1)C(=O)NCC(F)(F)F [DECERNOTINIB]
fold change (FC) (Cytochrome P450 3A4 [7]): 4.3
fold change (FC) (Cytochrome P450 3A4 [8]): 2.7
fold change (FC) (Cytochrome P450 3A4 [9]): 12

c1ccc2cnncc2c1 [PHTHALAZINE]
K (Aldehyde oxidase 1 [10]): 4.7 to 5.1
K (Aldehyde oxidase 1 [11]): 4.7 to 5.1
K (Aldehyde oxidase [12]): 4.7 to 5.1

COCCc1c(C(=O)NC(=N)N)cnn1-c1cccc2ncccc12
t1/2 (Aldehyde oxidase [13]): 2 h

N=C(N)NC(=O)c1cnn(-c2cccc3ncccc23)c1C1CC1 [ZONIPORIDE]
K (Aldehyde oxidase 1 [14]): 3.6 to 6.1
K (Aldehyde oxidase 1 [15]): 3.6 to 6.1
K (Aldehyde oxidase [16]): 3.6 to 6.1
K (Aldehyde oxidase [17]): 1.9

N=C(N)NC(=O)c1cnn(-c2ccc3ncccc3c2)c1C1CC1
t1/2 (Aldehyde oxidase [13]): < 0.083 h

Nc1nc2c(ncn2CCC(CO)CO)c(=O)[nH]1 [PENCICLOVIR]
bioavailability [18]: 77%

c1ccc2nccnc2c1 [QUINOXALINE]
K (Aldehyde oxidase 1 [10]): 4.7 to 5.1
K (Aldehyde oxidase 1 [11]): 4.7 to 5.1
K (Aldehyde oxidase [12]): 4.7 to 5.1

c1ccc2ncccc2c1 [QUINOLINE]
K (Aldehyde oxidase 1 [14]): 3.6 to 6.1
K (Aldehyde oxidase 1 [15]): 3.6 to 6.1
K (Aldehyde oxidase [16]): 3.6 to 6.1

CCNC(=O)OC1CCN(c2nncc3cc(OC)c(OC)cc23)CC1 [CARBAZERAN]
K (Aldehyde oxidase 1 [14]): 3.6 to 6.1
K (Aldehyde oxidase 1 [15]): 3.6 to 6.1
K (Aldehyde oxidase [16]): 3.6 to 6.1
K (Aldehyde oxidase [17]): 1.5

CCCN1CC(c2ccc(S(C)(=O)=O)cc2)=C(c2ccc(C=O)cc2)C1=O
Activity (Aldehyde oxidase [19]): 77%

Cn1cc(-c2ccc3nnc(C(F)(F)c4ccc5ncccc5c4)n3n2)cn1 [JNJ-38877605]
clearance [20]: 0.72 L/h/kg
